In patent publication US20060135415A1, “Immunomodulation and effect on cell processes relating to serotonin family receptors and the blood-brain barrier” (priority 2002, published 2006):

Key:
[1] = system: murine lymphocytes (BALB/c responders, C57/B6 stimulators); assay: Murine mixed lymphocyte reaction (BALB/c vs. C57BL6); assay type: cell-based, mouse; details: FIG. 10
Experimental: MLRs were performed essentially as described in Current Protocols in Immunology (1999, Section 3.12.6-3.12.7). That is, the primary spleen cells obtained from C57/B6J mice were used as stimulators. They were purified as described in Current Protocols in Immunology (1999, Section 3.1.5), and were irradiated (35 Gy) at the Hahnemann Hospital (Philadelphia, Pa.) blood bank facility. Primary spleen cells obtained from BALB/c/BYJ were depleted from the adherent cells using a nylon wool column, and were used as responders.
The various inhibitors were pre-plated onto 96 well, U-bottom plates and all experimental conditions were assayed at least in triplicate. 100,000 C57/B6 cells in RPMI medium, supplemented with 10% FBS, were plated into each well. 200,000 of BALB/c/BYJ cells were plated over the stimulator cells, to a final volume of 200 μl/well. Background controls received either no BALB/c cells, or no C57/B6 cells. One micro Ci of tritiated thymidine was added to each well after 4 days, and the plates were harvested 12 hours later.

[2] = system: T cells in macrophage-conditioned media; assay: Macrophage media-conditioning study, T cell proliferation in conditioned media; assay type: cell-based, mouse; details: assay shown in FIG. 1
[3] = system: ConA stimulated human lymphocytes; assay: Human mitogenic (ConA) stimulation, 3H-thymidine incorporation; assay type: cell-based; details: for relief of phenelzine-induced inhibition: phenelzine-inhibited cells, reagents 100 μM (FIG. 6); for proliferative response, reagent added alone: reagent 100 μM (FIG. 6); for stimulation of ConA-activated human PBLs: reagents at 400 μM, time course (FIG. 4)
Experimental: Blood from healthy volunteers was drawn using venipuncture, using Vacutainer collection sets and heparinized collection vials. The blood was diluted 1:1 using HBSS to a total volume of 30 ml in 50 ml conical tubes (Fisher Scientific, Co., Pittsburgh, Pa.). […] Cells from the buffy coats were collected and the residual Histopaque was washed away using repeated centrifugations in HBSS. After washes, cells were resuspended at 5 million cells per ml in RPMI, supplemented with 2% FBS. To remove adherent cells, the suspension was plated onto a 6 well flat-bottom plate (Corning Costar), 3 ml/well, and incubated for 2 hours at 37° C., 5% CO2. Non-adherent cells were harvested after this incubation, were counted and resuspended in RPMI supplemented with 10% human serum (Sigma).
All drugs were pre-plated before the cell suspension was added onto each well of a 96-well round-bottom plate. All experimental conditions were assayed in at least triplicate. Cells suspended in RPMI supplemented with 10% human serum were plated at 100,000 cells per well to a final volume of 200 μl. […] Control samples received no ConA stimulation. The plates were incubated at 37° C. and 5% CO2.

[4] = system: ConA stimulated human lymphocytes; assay: Viable cell counts (trypan blue) during ConA stimulation; assay type: cell-based; details: 10 μg/ml ConA, manual counts over time (FIG. 11)
Experimental: FIG. 11 is a diagram depicting the effect of a 5HT type 1 receptor antagonist and a 5HT type 2 receptor antagonist on the cell numbers occurring during the mitogenic stimulation of human lymphocyte activation. The cells were stimulated with 10 μg/ml ConA. The cells were repurified on a Ficoll gradient prior to addition of the inhibitor. Trypan blue exclusion was used to count the viable cells.
To further assess the effects of propanolol (a general 5-HTR 1 antagonist) and risperidone (a general 5-HTR 2 antagonist) on the mitogenically stimulated lymphocyte culture, the number of viable cells were manually counted as the assay progressed. If the cells were not stimulated, there was no detectable change in the number of viable cells. When the cells were stimulated with ConA, a small lag period was observed and the beginning of the growth phase compared to the stimulation response curve observed in the absence of the inhibitor. […] Apparently, there is no decrease or increase compared with the starting cell numbers. It is unclear whether or not this is due too anergy, an inability to initiate the activation pathway, or both. […] Thus, based on the data presented here, the classes of antagonists that inhibit the type 2 serotonin receptors appear to be rate limiting for the lymphocyte activation processes.

[5] = system: allogeneic CTL response against P815 cells; assay: Murine allograft model, CTL killing of P815 target cells by splenocytes; assay type: in vivo, C57BL/6J mice; details: 5HT antagonists 200 μg/injection tail vein days 6 and 8; Cyclosporin A 100 μg ip daily from day −2; sacrifice day 14 (FIGS. 13, 14)
Experimental: The in vivo validation screen used was an art-recognized murine allogeneic rejection model as described in Zhan et al., 2000. For this assay, a complete MHC miss-match system was employed wherein 5×10^6 P815 cells ([H-2^d] DBA/2 mastocytoma) were injected into the peritoneal cavity of C57BL/6J (H-2^b) mice on day 0 of the experiment. These mice typically generate a strong cytotoxic T lymphocyte (CTL) reaction in response to P815 cells. Following the initial P815 cell inoculation, the mice were allowed to develop a CTL response (this usually takes about 10-14 days). […] Mice were then sacrificed on day 14 of the experiment as indicated in the figures; and the allogeneic CTL response was assayed as described previously (Tretiakova et al., 2000, Nature Biotechnology 18:984-988). The primary spleen cells from the treated and untreated animals were used in the direct CTL readout. Freshly obtained primary spleen cells were incubated with the [^3H] labeled target cells (P815 cells) at 100:1, 50:1, 25:1, and 12.5:1 ratios for 3.5 hours at 37° C. and harvested using a PHD harvester. The percentage of specific killing was determined using the formula % kill=(S−E)/S, where S is the amount of the DNA retained by the target cells in the absence of the effector cells and E is the amount of retained DNA in the presence of the effector cells (expressed in counts per minute; cpm).
This is an art-recognized model of allograft […] rejection based on that described by […]. (2000). In this model, there is a complete MHC mismatch between the P815 cells (H-2^d) and the C57BL6 mouse (H-2^b), thus ensuring an aggressive immune response. The data disclosed in FIG. 13, depicts results of experiments that included 6 treatment groups, each group consisting of three mice. Each mouse received 5×10^6 P815 cells injected into the peritoneal cavity on day 0 of the study. The first group was an untreated control group, which was used to establish the baseline response of the mice against the allogeneic stimulus. These mice, without any further treatments, were sacrificed, as were the other treatment groups, on day 14 of the study and their splenocytes assayed for target-specific killing of the P815 cells.
The average kill observed for the untreated group was about 45% at an effector to target ratio of 100:1. The second group was treated with risperidone, a 5HT-2 antagonist, administered via a tail vein bolus injection (200 μg/injection) on days 6 and 8 of the study. The timing of the drug administration was selected to ensure that the T cells were fully activated prior to the drug treatment. The third group was treated with propanolol, a 5HT-1 antagonist. All of the 5HT receptor antagonist-treated groups were treated as described for the risperidone-treated group. The fourth group was treated chronically with CyclosporinA. The Cyclosporin A was administered ip at a dosage of 100 μg/injection starting two days prior to the onset of the study, i.e., at day −2, and the injections were continued on a daily basis for the duration of the study.
Finally, studies conducted in vivo using the CD8-dependent allograft rejection model, in which P815 cells (a rapidly growing cell line taken from a mastocytoma in a DBA mouse), were expanded and used to create a robust rejection response in a C57BL6 mouse. In this study the mice received 5×10^6 P815 cells injected into their peritoneal cavity on day 0 of the study. The first group was an untreated control group (naïve animals), used to acquire the baseline response of the mice against the allogeneic stimulus. The positive controls were treated with the allogeneic cells without any further treatments. These animals were used to assess the induced allogeneic response against the P815 cells. […]

[6] = system: RPMI 8226 multiple myeloma cells; assay: RPMI 8226 cell viability and proliferation (trypan blue, MTT, 3H-thymidine); assay type: cell-based, human; details: 3H-thymidine uptake, drug titration (FIGS. 19-25, 31, 32)
Experimental: The human plasmacytoma (multiple myeloma) cell line, RPMI 8226 (American Type Culture Collection, Manassas, Va.), was cultured in RPMI 1640 supplemented with 10 mM HEPES, 1 mM sodium pyruvate, 4.5 g/L glucose, 1.5 g/L bicarbonate and 20% FBS (non-heat inactivated).
Cell proliferation was assayed by three methods—Trypan Blue Exclusion was used to quantify the number of viable cells in culture; 3-(4,5-dimethylthiazol-2-yl)-2,5-diphenyl tetrazolium bromide (MTT) reduction was used to assay mitochondrial activity (and thus cell viability); and ^3H-Thymidine uptake was employed to assay for active DNA synthesis.
Three separate indicators of cell proliferation were employed to study the effects of 5-HT receptor modulating agents on the human multiple myeloma cell line, RPMI 8226. Cells were plated at 4 separate densities and were treated with LY53587 (an antagonist of the 5-HT2A/2B/2C receptors) at a range of concentrations. The exclusion of trypan blue dye was used as an indicator of cell viability. Cell numbers were then plotted against the concentration of drug added.
MTT reduction was also used as an indicator of cell viability (more specifically, mitochondrial activity). Absorbance values at OD570 were then plotted against drug concentration. Finally, DNA synthesis was assayed, through the measurement of ^3H-thymidine uptake, and counts per minute (CPMs) were plotted against drug concentration.
Culturing and administration of drugs and ^3H-thymidine were performed as described elsewhere herein.

RPMI-8226 cells = assay: Cytospin histochemistry (H&E, bis-benzamide) for chromatin; assay type: cell-based, human; details: 9 hour treatments, 50 μM SB compounds, 2 μM camptothecin (FIGS. 28, 29)
Experimental: 2.0×10^5 RPMI-8226 cells were cultured, in 6-well culture plates, in the presence of the indicated drug concentrations, in a total of 5 mL RPMI-1640 supplemented with 10% FBS. Each well was harvested in its entirety and divided into two identical samples for cytospins.
1.0×10^5 RPMI-8226 cells from each treatment group were loaded into Cyto-funnels and centrifuged at 500 rpm for 4 minutes with medium acceleration. Slides were then fixed through graded methanol in PBS (100%, 5 minutes; 80%, 5 minutes; 50%, 5 minutes), washed for 5 minutes in PBS and stored in PBS at 4° C. until stained.
Cytospun slides were stained with Hematoxylin and Eosin, followed by the nuclear stain, bis-benzamide, rinsed and mounted according to standard staining protocols. Slides were visualized under both brightfield and fluorescent light to generate matched images of the same slide field (see, e.g., FIGS. 28 and 29).

[7] = system: allogeneic stimulation of human lymphocytes; assay: Human mixed lymphocyte reaction (allogeneic stimulation), 3H-thymidine; assay type: cell-based; details: allogeneic stimulation, harvest 120 hours, drug titration (FIGS. 7B, 8B, 9B)
Source text: Blood from two healthy, non-related, donors was taken as described above. Peripheral blood mononuclear cells were isolated as described previously elsewhere. The adherent cells were separated from the suspension cells as described previously for both donors. Suspension cells from both donors (donors A and B) were used as responders. The remaining adherent cells from each of the donors were used as stimulators against a different donor (suspension A against adherent B and adherent A against suspension B). The stimulator cells were irradiated at 35 Gy. Drugs were pre-plated onto 96 well, U-bottom plates in triplicate. 200,000 “stimulator” cells in RPMI supplemented with 10% human serum were then plated in each well. 200,000 “responder” cells in the same medium were then plated over stimulators to a final volume of 200 μl/well. Background controls received either no stimulator cells, or no responder cells. The plates were incubated at 37° C. and 5% CO2. 1 μCi of tritiated thymidine was added to each well after 4.5 days, and the plates were harvested 12 hours later.

Compound: CNc1cc(NS(=O)(=O)c2ccc(N)cc2)nc(NC)n1 [Ro 04-679]
- outcome of murine MLR [1]: had no effects on the outcome of the assay

Compound: NCCc1c[nH]c2ccc(O)cc12 [serotonin, 5-hydroxytryptamine]
- restoration of T cell proliferation in conditioned media [2]: only marginally restored the assay
- relief of phenelzine-induced inhibition ([3]; 1 μg/ml ConA): caused the assay to rebound to baseline levels
- proliferative response, reagent added alone ([3]; 1 μg/ml ConA): did not
- proliferative response ([3]; differing ConA concentrations 0.1-10 μg/ml, harvest 72 hours (FIG. 5)): has no effect on the assay until the highest dose of ConA
- stimulation of ConA-activated human PBLs [3]: enhanced the maximal stimulation of the cells

Compound: CC(C)NC[C@H](O)COc1cccc2ccccc12 (racemic) [propanolol]
- number of viable cells [4]: prevents the cell from growing
- allograft (CTL) response [5]: did not protect the mice from the allograft rejection response

Compound: 5-methyl hydroxytryptamine
- outcome of murine MLR [1]: slight enhancement

Compound: N[C@@H](Cc1c[nH]c2ccccc12)C(=O)O [tryptophan]
- restoration of T cell proliferation in conditioned media [2]: had no effect
- proliferative response ([3]; 0.1 μg/ml ConA, harvest 72 hours (FIG. 5A)): augments the proliferative response
- relief of phenelzine-induced inhibition ([3]; 1 μg/ml ConA): had very little effect
- proliferative response, reagent added alone ([3]; 1 μg/ml ConA): enhanced the proliferative response
- proliferative response ([3]; highest ConA dose 10 μg/ml, harvest 72 hours (FIG. 5C)): no enhancement at the highest level
- stimulation of ConA-activated human PBLs [3]: enhanced the maximal stimulation of the cells

Compound: Cc1cc2c(cc1Cl)N(C(=O)Nc1ccc(Oc3cccnc3C)nc1)CC2 [SB 242084]
- inhibitory profile on mitogenic stimulation ([3]; 1 μg/ml ConA, harvest 72 h, drug added at time=0 or 48 hours (FIG. 12)): retained the complete inhibitory profile
- activation / proliferative response ([3]; 5 μg/ml ConA, harvest 72 hours, drug titration (FIGS. 7A, 8A, 9A, 17, 33)): inhibit the activation response at pharmacologically relevant concentrations
- growth / proliferation of RPMI 8226 cells [6]: strong inhibition of growth
- chromatin condensation / fragmentation (apoptosis) (RPMI-8226 cells): induced programmed cell death comparable to that induced by the topoisomerase I inhibitor, camptothecin
- chromatin condensation / fragmentation (apoptosis) (RPMI-8226 cells; listed as SB242084): condensed and fragmented chromatin
- activation / proliferative response [7]: inhibit the activation response at pharmacologically relevant concentrations
